Results reported in patent US9908908B2, “Tenofovir prodrug and pharmaceutical uses thereof” (Jiangsu Hansoh Pharmaceutical Co., Ltd., priority 2012, dated 2018).

Tests used:
[1] = test system: hepatitis B virus (HBV); experiment: In vitro anti-hepatitis B virus activity (HBV DNA-replication, dot blot); format: cell-based
Experimental: HepG 2.2.15 cell was used as the hepatitis B virus (HBV) vehicle to determine the inhibition effect of the compounds on DNA-replication of HBV.
Test method: HepG 2.2.15 cells were seeded into a 96-well culture plate. Various dilutions of test samples and positive control were added, respectively, after 24 hours, in which a cell control well was set. The medium was replaced with culture containing various dilutions of test samples after 72 hours. The supernatants and HepG 2.2.15 cells were collected after 6 days of culture.

[2] = test system: MT-2 cells; experiment: Cytotoxicity in cells free of virus (anti-HIV test); format: cell-based
Experimental: (§1) 3) Cells for the cytotoxic detection were incubated in a 384-well plate for 3 days.
(§2) 6) Luminescent signal of the cells free of virus was detected to evaluate cytotoxicity after incubation for 3 days.
(§3) 7) The antiviral activity and cytotoxicity were calculated according to the following equation: Antiviral activity (%)=100−(Detection value−Maximum value)/(Minimum value−Maximum value)*100 Cytotoxicity (%)=100−(Detection value−Maximum value)/(Minimum value−Maximum value)*100 8) EC50 and CC50 were calculated with Fit Curve of Graphpad Prism 5 (the results are shown in Table 4).

[3] = as above; format: cell-based; conditions: human; cells free of virus, 3 days, luminescent signal; read-out: Toxicity CC50
Experimental: as §1, §2, §3

[4] = Metabolic stability in fresh human whole blood and distribution test in PBMCs; format: in vitro ADME
Experimental: Different tenofovir prodrugs were incubated together with fresh human whole blood at 37° C. Plasma and PBMCs were separated, respectively, from the whole blood (Ficoll density gradient centrifugation method) after 1 hour and 2 hours incubation to determine the concentrations of prototype drug and metabolite-tenofovir in plasma and PBMCs. The PBMCs were counted via cell counter and each PBMC was treated as 200 fL to calculate intracellular drug concentration.
20 μL of internal standard solution (400 ng/mL SN-38 solution), […], methanol-water (50:50, v/v), and 200 μL acetonitrile were added to 100 μL plasma sample or PBMC sample, respectively. The mixture was mixed by vortex for 1 min and centrifuged for 5 min (14000 rpm). 20 μL supernatant and 180 μl mobile phase were mixed by vortex for 1 min, and 10 μL of the above mixture was injected into LC/MS/MS for analysis.

[5] = test system: HIV-1 (IIIb); experiment: microbe, parasite or virus in culture; format: cell-based
Experimental: 1) MT-2 cells were infected with HIV-1 (IIIb) to form multiplicity of infection (MOI) 0.01 TCID50 per cell.
2) The mixture of virus and cells was incubated in a 384-well plate for 3 days.
4) The supernatant was transferred to a new plate and incubated with reporter cells (HeLa) for 24 hours.
5) Detecting beta-GAL activity to evaluate anti-HIV activity.
as §3

[6] = test system: HepG 2.2.15 cells; experiment: Cytotoxicity test (CellTiter-Blue); format: cell-based
Experimental: (§4) Test method: HepG 2.2.15 cells were seeded into a 96-well culture plate and various dilutions of test samples and positive control were added, respectively. CellTiter-Blue (Promega, Catalog #G8081) was added for 6 days of culture.

[7] = Cytotoxicity test (CellTiter-Blue); format: cell-based; conditions: human; HepG 2.2.15 cells, 6 days of culture; read-out: Toxicity CC50
Experimental: as §4

[8] = Stability test in acidic medium (hydrochloric acid solution pH 2.0); format: physicochemical
Experimental: 4.5 mL of 36% hydrochloric acid was transferred into a 1 L volumetric flask and diluted with water to 1 L to prepare a stock solution. Then 10 mL of the above solution was transferred into a 50 mL volumetric flask and diluted with water to 50 mL to prepare the hydrochloric acid solution with pH 2.0.
5.0 mg of GS-7340 were transferred into a 5 mL volumetric flask and mixed with 2.5 mL of isopropyl alcohol to dissolve GS-7340, and then the hydrochloric acid solution (pH 2.0) was added to 5 mL. The solution was shaken well and filtered for using.
5.0 mg of compound Ia1 were transferred into a 5 mL volumetric flask and mixed with 2.5 mL of isopropyl alcohol to dissolve compound Ia1, and then the hydrochloric acid solution (pH 2.0) was added to 5 mL. The solution was shaken well and filtered for using.
(§5) The prepared sample was filled into the chromatography vial as the initial sample and immediately injected. Meanwhile, the rest of the samples were put into a 37° C. incubator, and were injected into the HPLC system after 6 hours.

[9] = Stability test in simulated gastric juice (pepsin, pH 2.0); format: physicochemical
Experimental: 10 ml of the stock solution and 500.0 mg of pepsin were transferred into a 50 mL volumetric flask and diluted with water to 50 ml, which was then subjected to ultrasound to dissolve the pepsin (the solution was not clear now) and then filtered to give a clear solution as simulated gastric juice.
5.0 mg of GS-7340 were transferred into a 5 mL volumetric flask and mixed with 2.5 mL of isopropyl alcohol to dissolve GS-7340, and then the simulated gastric juice was added to 5 mL. The solution was shaken well and filtered for using.
5.0 mg of compound Ia1 were transferred into a 5 mL volumetric flask and mixed with 2.5 mL of isopropyl alcohol to dissolve compound Ia1, and then the simulated gastric juice was added to 5 mL. The solution was shaken well and filtered for using.
as §5

[10] = Acid medium (pH = 2), 37° C., 6 hours

CC(C)OC(=O)C(C)(C)N[P@](=O)(CO[C@H](C)Cn1cnc2c(N)ncnc21)Oc1ccccc1 [Ia1]
inhibitory effect on HBV-DNA replication (in words) ([1]; HepG 2.2.15 cells): significant inhibitory effect | inhibitory effect on HBV-DNA replication compared with positive control GS7340 ([1]; HepG 2.2.15 cells): better than that of the positive control GS7340 | IC50 ([1]; Hepatitis B virus, HepG2.2.15, 144 h): 5 nM | cytotoxicity (in words) [2]: no cytotoxicity | CC50 at 3 days [3]: > 150000 nM | Prototype concentration ([4]; 0 hour, initial concentration, fresh human whole blood): 12.4 µM | Prototype concentration ([4]; 1 hour incubation at 37° C., in PBMCs): 1528 µM | Prototype concentration ([4]; 1 hour incubation at 37° C., in plasma): 12.3 µM | change of active metabolite-tenofovir concentration in PBMCs over the incubation time (in words) ([4]; 1 hour to 2 hours): increased significantly | Prototype concentration ([4]; 2 hour incubation at 37° C., in PBMCs): 1282 µM | Prototype concentration ([4]; 2 hour incubation at 37° C., in plasma): 12.2 µM | concentration of active metabolite-tenofovir in PBMCs relative to GS-7340 ([4]; after incubation for 2 hours): about three times | active metabolite-tenofovir detected in plasma (in words) ([4]; after incubation with fresh human whole blood): no active metabolite-tenofovir was detected | stability in plasma (in words) ([4]; fresh human whole blood, compared with GS-7340): significantly better than the positive control GS-7340 | inhibitory effect on HIV virus (in words) [5]: strong inhibitory effect | EC50 ([5]; Human immunodeficiency virus 1, IIIB, MT2, 72 h): 8 nM | cytotoxicity (in words) [6]: without cytotoxicity | CC50 at 6 days [7]: > 10000 nM | Change value [8, 10]: 0.6% | Purity after 6 hours [8, 10]: 98.1% | Initial purity ([8]; Acid medium (pH = 2), initial sample): 98.7% | stability compared to GS-7340 (in words) ([8]; acid medium and simulated gastric juice): significantly improved | Change value ([9]; 37° C., 6 hours): 0.5% | Purity after 6 hours ([9]; 37° C., 6 hours): 98.2% | Initial purity ([9]; initial sample): 98.7%
